{
  "source": "paper PMC7600243",
  "about": "“Live Imaging of Phosphate Levels in Arabidopsis Root Cells Expressing a FRET-Based Phosphate Sensor” (Plants, 2020)",
  "molecular_target": "PiBP (Pi binding bacterial periplasmic Binding Protein) of the FLIPPi sensors FLIPPi-30m and FLIPPi-4µ",
  "conditions": "pH 7.0; 20 mM Tris-HCl or MOPS; in planta, externally applied Pi buffer 0-200 mM; inhibitor dose response fit, variable slope",
  "data": [
    {"smiles": "O=P(O)(O)O", "note": "[Pi, inorganic phosphate]", "values": [
      {"measurement": "Kd", "value": 35, "unit": "mM"}
    ]}
  ]
}
